Measurements taken from ChEMBL document CHEMBL1201862, “PubChem BioAssay data set” (2004).
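Where inhibition never reached the appropriate level, the endpoint shown equals the highest concentration tested. Otherwise, values were interpolated linearly from a five-concentration, 48-hour dose response in 96-well plates. The concentration for 50% growth inhibition is given as GI50.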 Active and inactive are the calls of the source. No stated cut-off is given here; in the data, active = GI50 up to about 1.1 µM and inactive = higher.

Experiments:
Experiment in all cases: NCI anticancer screen, dose series, 48 h
786-0 = test system: 786-0
ACHN = test system: ACHN
CCRF-CEM = test system: CCRF-CEM
KM12 = test system: KM12
LOX IMVI = test system: LOX IMVI
LXFL 529 = test system: LXFL 529
M14 = test system: M14
OVCAR-4 = test system: OVCAR-4
OVCAR-8 = test system: OVCAR-8
SF-268 = test system: SF-268
SK-MEL-28 = test system: SK-MEL-28
SK-OV-3 = test system: SK-OV-3
SN12C = test system: SN12C
SW-620 = test system: SW-620
UACC-257 = test system: UACC-257
SNB-78 = test system: SNB-78
BT-549 = test system: BT-549
DU-145 = test system: DU-145
MCF7 = test system: MCF7
PC-3 = test system: PC-3

Measured: GI50

O=C1[C@H](Cl)[C@H]2c3cc4ccccc4nc3Oc3ccccc3N12
inactive: 786-0 36.8 µM | ACHN 28.4 µM | CCRF-CEM 61 µM | KM12 33.3 µM | LOX IMVI 36.7 µM | LXFL 529 34 µM | M14 76.9 µM | OVCAR-4 45.5 µM | OVCAR-8 51.3 µM | SF-268 25.8 µM | SK-MEL-28 33 µM | SK-OV-3 45.5 µM | SN12C 43.4 µM | SW-620 > 100 µM | UACC-257 50.4 µM

Cc1cccc(C)c1NC(=O)CCCC(=O)C(C#N)c1ccccc1 (configuration not stated)
inactive: 786-0 > 10 µM | ACHN > 100 µM | CCRF-CEM > 100 µM | KM12 > 10 µM | LXFL 529 > 100 µM | M14 > 100 µM | OVCAR-4 > 100 µM | OVCAR-8 > 10 µM | SF-268 > 10 µM | SK-MEL-28 > 100 µM | SK-OV-3 91 µM | SN12C > 10 µM | SNB-78 > 100 µM | SW-620 > 100 µM | UACC-257 > 100 µM

CC1=C(O)C(=O)C2C(=O)C1C1Cc3ccccc3C21 (configuration not stated)
inactive: 786-0 > 100 µM | ACHN > 100 µM | CCRF-CEM > 100 µM | KM12 > 100 µM | LOX IMVI > 100 µM | LXFL 529 > 100 µM | M14 > 100 µM | OVCAR-4 > 100 µM | OVCAR-8 > 100 µM | SF-268 > 100 µM | SK-MEL-28 > 100 µM | SK-OV-3 > 100 µM | SNB-78 > 100 µM | SW-620 > 100 µM

CCN(CC)C(=O)C/C(C)=N/NC(=O)c1ccncc1
inactive: 786-0 > 100 µM | CCRF-CEM > 100 µM | KM12 > 100 µM | LOX IMVI > 100 µM | LXFL 529 > 100 µM | M14 > 100 µM | OVCAR-8 > 100 µM | SF-268 > 100 µM | SK-MEL-28 > 100 µM | SK-OV-3 > 100 µM | SNB-78 > 100 µM | SW-620 > 100 µM | UACC-257 > 100 µM

O=[N+]([O-])[C@@H]1C2C=CC(C2)[C@H]1Cl (some centres not stated)
inactive: 786-0 > 100 µM | ACHN > 100 µM | CCRF-CEM > 100 µM | KM12 > 100 µM | LOX IMVI > 100 µM | LXFL 529 > 100 µM | M14 > 100 µM | OVCAR-4 > 100 µM | OVCAR-8 > 100 µM | SF-268 > 100 µM | SK-MEL-28 > 100 µM | SK-OV-3 > 100 µM | SN12C > 100 µM | SNB-78 > 100 µM | SW-620 > 100 µM | UACC-257 > 100 µM

CC(=O)Oc1c(C)c(-c2ccccc2)c(C)c(-c2ccccc2)c1C(=S)c1ccccc1
inactive: 786-0 > 100 µM | ACHN > 100 µM | CCRF-CEM > 100 µM | KM12 > 100 µM | LOX IMVI > 100 µM | LXFL 529 > 100 µM | M14 > 100 µM | OVCAR-8 > 100 µM | SF-268 > 100 µM | SK-MEL-28 > 100 µM | SK-OV-3 > 100 µM | SN12C > 100 µM | SNB-78 > 100 µM | UACC-257 > 100 µM

O=C(O)c1c2c(c(C(=O)O)c3ccccc13)-c1ccccc1-2
inactive: 786-0 36.8 µM | ACHN 30.8 µM | CCRF-CEM 32.5 µM | KM12 38.4 µM | LOX IMVI 38.4 µM | LXFL 529 39.8 µM | M14 47.5 µM | OVCAR-8 39.9 µM | SF-268 31.9 µM | SK-MEL-28 20.3 µM | SK-OV-3 27.8 µM | SN12C 35.1 µM | SNB-78 71.1 µM | SW-620 36.8 µM | UACC-257 47.5 µM

CC1=CC(=O)c2c(C=O)c(O)c(O)c(C(C)C)c2C1=O
inactive: 786-0 19.8 µM | ACHN 16.8 µM | CCRF-CEM 14.7 µM | LOX IMVI 14.9 µM | LXFL 529 16.5 µM | M14 31.3 µM | OVCAR-4 14.6 µM | SF-268 20.9 µM | SK-MEL-28 34 µM | SK-OV-3 34.5 µM | SN12C 35.1 µM | SNB-78 45.9 µM

Cc1nc(C(=O)O)c2ccccc2n1
inactive: 786-0 > 100 µM | ACHN > 100 µM | CCRF-CEM > 100 µM | KM12 > 100 µM | LXFL 529 > 100 µM | OVCAR-8 > 100 µM | SF-268 > 100 µM | SK-MEL-28 > 100 µM | SK-OV-3 > 100 µM | SN12C > 100 µM | SNB-78 > 100 µM | SW-620 > 100 µM | UACC-257 > 100 µM

CCc1cc(C)cc2[n+]1CC=C2C.[O-][Cl+3]([O-])([O-])[O-]
inactive: 786-0 > 100 µM | ACHN > 100 µM | KM12 > 100 µM | LOX IMVI > 100 µM | LXFL 529 80.5 µM | M14 > 100 µM | OVCAR-4 > 100 µM | OVCAR-8 > 100 µM | SF-268 > 100 µM | SK-MEL-28 > 100 µM | SN12C > 100 µM | SNB-78 > 100 µM | SW-620 > 100 µM | UACC-257 27.3 µM

Cc1c(C(=O)/C=C/c2ccccc2O)c(=O)n(-c2ccccc2)n1C
inactive: 786-0 20.4 µM | ACHN 19 µM | CCRF-CEM 9.55 µM | KM12 > 10 µM | LOX IMVI 16.9 µM | LXFL 529 16.7 µM | OVCAR-8 15.6 µM | SF-268 37.8 µM | SK-MEL-28 25.1 µM | SK-OV-3 36.1 µM | SN12C 21 µM | SNB-78 39.4 µM | SW-620 15.1 µM | UACC-257 22.4 µM

S=C(Nc1ccccc1)Nc1ccccc1SC(/C=C/NNC1=NN=C(c2ccccc2)C(c2ccccc2)N1)c1ccccc1 (configuration not stated)
inactive: 786-0 81.5 µM | ACHN 69.7 µM | CCRF-CEM 28.5 µM | KM12 > 100 µM | LOX IMVI > 100 µM | M14 > 100 µM | OVCAR-4 5.68 µM | OVCAR-8 > 100 µM | SF-268 > 100 µM | SK-MEL-28 > 100 µM | SK-OV-3 > 100 µM | SN12C > 100 µM | SNB-78 > 100 µM | SW-620 > 100 µM

CCc1cc(CCC(=O)Nc2c(C)cccc2C)n[nH]1
inactive: 786-0 > 100 µM | ACHN > 100 µM | CCRF-CEM > 100 µM | KM12 > 100 µM | LXFL 529 > 100 µM | M14 > 100 µM | OVCAR-4 > 100 µM | OVCAR-8 > 100 µM | SF-268 > 100 µM | SK-MEL-28 > 100 µM | SK-OV-3 > 100 µM | SN12C > 100 µM | SNB-78 > 100 µM | SW-620 > 100 µM | UACC-257 > 100 µM

O=C(O)c1c(-c2cccc3ccccc23)sc(-c2cccc3ccccc23)c1C(=O)O
inactive: 786-0 > 100 µM | ACHN > 100 µM | CCRF-CEM 22.1 µM | KM12 36.6 µM | LOX IMVI > 100 µM | LXFL 529 > 100 µM | M14 > 100 µM | OVCAR-8 > 100 µM | SF-268 > 100 µM | SK-MEL-28 > 100 µM | SK-OV-3 > 100 µM | SN12C > 100 µM | SNB-78 > 100 µM | SW-620 > 100 µM | UACC-257 > 100 µM

CCOC1=C2C(=O)OC(=O)C2C2CCCCC2=C1 (configuration not stated)
inactive: 786-0 > 100 µM | CCRF-CEM > 100 µM | KM12 > 100 µM | LOX IMVI > 100 µM | LXFL 529 > 100 µM | M14 > 100 µM | OVCAR-4 > 100 µM | OVCAR-8 > 100 µM | SF-268 > 100 µM | SK-MEL-28 > 100 µM | SK-OV-3 > 100 µM | SN12C > 100 µM | SNB-78 > 100 µM | SW-620 > 100 µM | UACC-257 > 100 µM

Cc1ccc(-c2nc3c(C(=O)NCCN(C)C)cccc3[nH]2)cc1
inactive: 786-0 24.4 µM | ACHN 10.3 µM | CCRF-CEM 11.5 µM | KM12 20 µM | LOX IMVI 11.1 µM | M14 15.8 µM | OVCAR-4 22.9 µM | OVCAR-8 15.2 µM | SF-268 18.5 µM | SK-MEL-28 18.4 µM | SK-OV-3 14.5 µM | SN12C 11.5 µM | SNB-78 20.2 µM | SW-620 6.27 µM | UACC-257 14 µM

C/C(=N\NC(=O)c1ccccc1O)c1cccc(/C(C)=N/NC(=O)c2ccccc2O)n1
inactive: 786-0 5.32 µM | ACHN 4.27 µM | BT-549 > 39.4 µM | DU-145 13.3 µM | KM12 6.5 µM | LOX IMVI 1.7 µM | LXFL 529 2.22 µM | M14 12.6 µM | MCF7 26.2 µM | OVCAR-8 2.13 µM | PC-3 7.1 µM | SF-268 3.41 µM | SK-OV-3 4.12 µM | SN12C 6.07 µM | SW-620 5.74 µM

CC1(C)CCC(C)(C)c2cc(NC(=O)c3ccc(C(=O)O)cc3)ccc21 [TAMIBAROTENE]
inactive: 786-0 31.3 µM | ACHN 36.5 µM | BT-549 25.7 µM | CCRF-CEM 16.8 µM | DU-145 23.8 µM | KM12 20.7 µM | LOX IMVI 22.9 µM | M14 26.5 µM | MCF7 28.9 µM | OVCAR-4 31.1 µM | OVCAR-8 41.5 µM | PC-3 25.8 µM | SF-268 34.8 µM | SK-MEL-28 > 48.3 µM | SK-OV-3 28 µM | SN12C 25.5 µM | SW-620 > 60.4 µM | UACC-257 29.4 µM
